Assay results taken from US8410150B2, “Inhibitors of carnitine palmitoyltransferase and treating cancer” (University Health Network, priority 2007, dated 2013).
Structures can show the parent of a compound that is named as a salt.

Target: T1, human CPT1A (Homo sapiens, UniProt P50416)
T1 construct: made in house; host or cells: Saccharomyces cerevisiae (pESC-trp) or cultured mammalian cells (pCDNA3.1); mitochondrial extract
T1 sequence (P50416 1-773): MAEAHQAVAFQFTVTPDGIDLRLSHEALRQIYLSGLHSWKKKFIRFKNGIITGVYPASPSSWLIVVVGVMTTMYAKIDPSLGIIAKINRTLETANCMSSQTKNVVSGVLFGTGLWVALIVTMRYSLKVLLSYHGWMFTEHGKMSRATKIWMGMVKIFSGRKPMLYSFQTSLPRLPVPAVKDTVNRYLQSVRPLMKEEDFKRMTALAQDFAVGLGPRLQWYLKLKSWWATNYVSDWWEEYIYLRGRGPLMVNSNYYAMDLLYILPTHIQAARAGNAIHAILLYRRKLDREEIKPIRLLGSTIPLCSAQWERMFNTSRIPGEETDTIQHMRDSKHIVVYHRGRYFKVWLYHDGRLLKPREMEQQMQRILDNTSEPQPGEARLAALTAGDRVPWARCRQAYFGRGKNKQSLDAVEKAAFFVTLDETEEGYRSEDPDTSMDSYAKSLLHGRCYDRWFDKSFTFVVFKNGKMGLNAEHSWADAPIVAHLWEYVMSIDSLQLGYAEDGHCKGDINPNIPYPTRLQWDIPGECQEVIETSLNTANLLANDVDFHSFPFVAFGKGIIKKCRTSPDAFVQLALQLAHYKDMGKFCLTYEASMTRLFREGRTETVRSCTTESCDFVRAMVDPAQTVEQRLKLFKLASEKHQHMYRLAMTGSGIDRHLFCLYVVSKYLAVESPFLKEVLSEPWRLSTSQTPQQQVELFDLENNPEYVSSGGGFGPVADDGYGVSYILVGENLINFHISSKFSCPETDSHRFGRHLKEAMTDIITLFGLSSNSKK
Test: Human CPT1A LC/MS assay
Type: biochemical
Settings: human CPT1A LC/MS assay, dose response format
From the text: Nucleotide sequences encoding human CPT1 enzymes were individually cloned into the yeast expression vector pESC-trp at the Cla1 (5′ terminus) and Pac1 (3′ terminus) restriction sites by PCR amplification of the open reading frame using oligonucleotide primers designed to encode the wild-type CPT1 protein sequence. Standard molecular biology techniques were used to transform and express the CPT1 proteins in the yeast Saccharomyces cerevisiae. The yeast cells were lysed by enzymatic degradation of the cell wall by Zymolase, and the mitochondria were isolated by standard biochemical techniques. The integrity of the isolated mitochondria was monitored by determining the activity of succinate dehydrogenase in the mitochondrial preparations. The mitochondrial extracts were stored at −80° C. in buffer containing 10 mM HEPES pH 7.4 and 250 mM sucrose.
Human CPT1 (A, B, C) genes were additionally cloned into the pCDNA3.1 vector individually for expression in cultured mammalian cells. Cells expressing the exogenous CPT1A were identified and grown under standard conditions. Mammalian cells were harvested, and mitochondrial extracts prepared using standard biochemical methods. The mitochondrial extracts were stored at −80° C. in buffer containing 10 mM HEPES pH 7.4 and 250 mM sucrose.
Assays were performed in 96-well plate format. Each 100 μL reaction contained 40 mM KCl, 50 mM TrisHCl pH 7.5, and 250 mM mannitol (Assay Buffer), and 1.6 μg protein of an extract, 20 μM palmitoyl-CoA, 50 μM L-carnitine, and 10 ug/mL BSA. Reactions were incubated at room temperature and stopped after 10 minutes by extraction with 200 μL of water saturated n-butanol containing myristoyl carnitine (500 nM) as an internal standard. The samples were thoroughly mixed, and the phases separated by centrifugation. Samples were prepared for analysis with a 10 fold dilution of the n-butanol phase containing the reaction product palmitoyl carnitine into a 50:50 (acetonitrile:water) solvent for analysis. […] of prepared sample was separated on a Phenomenex Jupiter 5μ C4 reverse-phase column using an Agilent 1100 HPLC with a gradient from 50% acetonitrile (0.5% acetic acid) to 100% acetonitrile and quantified by detection with a Bruker Esquire 3000plus mass spectrometer. The abundance of the palmitoyl carnitine product was determined relative to the internal standard and the actual quantity of palmitoyl carnitine can be determined from a standard curve prepared using the n-butanol solution containing the internal standard.
Compounds were evaluated in two formats, a screening format, and a dose response format. The screening format was performed by adding 25 μL compound in 20% DMSO and Assay Buffer to 25 μL of extract containing […] and Assay Buffer, followed by a 10 minute incubation at room temperature. 50 μL of 40 μM palmitoyl-CoA in Assay Buffer was added to the reaction mixture, mixed and incubated for 10 minutes at room temperature. A negative control for activity was also performed where the carnitine was omitted from the reaction. A positive control for activity was also performed by omitting compound from the solution containing 20% DMSO and Assay Buffer. The reaction mixture was extracted and analyzed as described above. The inhibition by compound was determined by comparing the control relative activity to the relative activity observed in wells containing the compound. Relative activity was determined by subtracting the relative intensity (area palmitoyl carnitine/area myristoyl carnitine) observed in the negative control from the relative intensity observed in the experimental well, and dividing by the relative activity observed in the positive control.
[formula] Compound characterization by dose response format was performed using the above described assay conditions and a 16 point compound titration in 2 fold compound dilution steps. The DMSO concentration was kept constant at 20% (v/v) for all compound concentrations.

Row | IC50 [µM] | Compound
1 | ≤ 1 | CCCCCCOc1cccc(OCCCCCN(C)S(=O)(=O)N[C@H](CC(=O)[O-])C[N+](C)(C)C)c1 [Example S109, (R)-3-(N-(5-(3-(hexyloxy)phenoxy)pentyl)-N-methylsulfamoylamino)-4-(trimethylammonio)butanoate]
2 | 100 to 1000 | C[N+](C)(C)C[C@@H](CC(=O)O)NS(=O)(=O)c1ccc(Oc2ccccc2)nc1 [Example S19, (R)-3-carboxy-N,N,N-trimethyl-2-(6-phenoxypyridine-3-sulfonamido)propan-1-aminium 2,2,2-trifluoroacetate]
3 | 100 to 1000 | C[N+](C)(C)C[C@@H](CC(=O)O)NC(=O)c1cccc(CCc2ccccc2)c1 [Example S46, (R)-3-(3-phenethylbenzamido)-4-(trimethylammonio)butanoate]
4 | 100 to 1000 | C[N+](C)(C)C[C@@H](CC(=O)[O-])NC(=O)Nc1cccc(Oc2ccccc2)c1 [Example S38, (R)-3-(3-(3-Phenoxyphenyl)ureido)-4-(trimethylammonio)butanoate]
5 | 100 to 1000 | C[N+](C)(C)C[C@@H](CC(=O)[O-])NC(=O)Nc1cccc(Cc2ccccc2)c1 [Example S86, (R)-3-(3-(3-benzylphenyl)ureido)-4-(trimethylammonio)butanoate]
6 | 1 to 10 | CCCCCCCCc1cccc(N(C)S(=O)(=O)N[C@H](CC(=O)O)C[N+](C)(C)C)c1 [Example S113, (R)-3-carboxy-N,N,N-trimethyl-2-(N-methyl-N-(3-octylphenyl)sulfamoylamino)propan-1-aminium 2,2,2-trifluoroacetate]
7 | 1000 to 2500 | CCCn1cc(C(=O)N[C@H](CC(=O)[O-])C[N+](C)(C)C)c(C)n1 [Example S54, (R)-3-(3-methyl-1-propyl-1H-pyrazole-4-carboxamido)-4-(trimethyl-ammonio)butanoate]
8 | 1 to 10 | CCCCCc1ccc(CCC2CCC(C(=O)N[C@H](CC(=O)[O-])C[N+](C)(C)C)O2)cc1 (stereo partly drawn) [Example S121, (3R)-3-(5-(4-pentylphenethyl)tetrahydrofuran-2-carboxamido)-4-(trimethylammonio)butanoate]
9 | 100 to 1000 | C[N+](C)(C)C[C@@H](CC(=O)O)NS(=O)(=O)c1ccc(C#Cc2ccccc2)s1 [Example S78, (R)-3-carboxy-N,N,N-trimethyl-2-(5-(phenylethynyl)thiophene-2-sulfonamido)propan-1-aminium 2,2,2-trifluoroacetate]
10 | 1000 to 2500 | C[N+](C)(C)C[C@@H](CC(=O)O)NS(=O)(=O)c1ccc(-c2ccno2)s1 [Example S22, (R)-3-carboxy-2-(5-(isoxazol-5-yl)thiophene-2-sulfonamido)-N,N,N-trimethylpropan-1-aminium 2,2,2-trifluoroacetate]
11 | ≤ 1 | CCCCCc1ccc(CCc2ccc(NS(=O)(=O)N[C@H](CC(=O)[O-])C[N+](C)(C)C)cc2)cc1 [Example S108, (R)-3-(N-(4-(4-pentylphenethyl)phenyl)sulfamoylamino)-4-(trimethyl-ammonio)butanoate]
12 | 1 to 10 | CCCCCCCC#Cc1ccc(NS(=O)(=O)N[C@H](CC(=O)[O-])C[N+](C)(C)C)cc1 [Example S104, (R)-3-(N-(4-(non-1-ynyl)phenyl)sulfamoylamino)-4-(trimethylammonio) butanoate]
13 | 1000 to 2500 | Cc1nc(-c2ccccc2)sc1NC(=O)N[C@H](CC(=O)[O-])C[N+](C)(C)C [Example S9, (R)-3-(3-(4-methyl-2-phenylthiazol-5-yl)ureido)-4-(trimethylammonio)-butanoate]
14 | ≤ 1 | C[N+](C)(C)C[C@@H](CC(=O)O)NC(=O)c1ccc(C#Cc2ccccc2)s1 [Example S43, (R)-3-(5-(phenylethynyl)thiophene-2-carboxamido)-4-(trimethylammonio)-butanoate]
15 | 100 to 1000 | CN(C(=O)N[C@H](CC(=O)[O-])C[N+](C)(C)C)c1ccc(Oc2ccccc2)cc1 [Example S34, (R)-3-(3-methyl-3-(4-phenoxyphenyl)ureido)-4-(trimethyl-ammonio)butanoate]
16 | 100 to 1000 | Cc1ncoc1C(=O)N[C@H](CC(=O)O)C[N+](C)(C)C [Example S49, (R)-3-carboxy-N,N,N-trimethyl-2-(4-methyloxazole-5-carboxamido)-propan-1-aminium trifluoroacetate]
17 | > 2500 | CCOc1ccc(S(=O)(=O)N[C@H](CC(=O)O)C[N+](C)(C)C)cc1NC(=O)N1CCOCC1 [Example S74, (R)-3-carboxy-2-(4-ethoxy-3-(morpholine-4-carboxamido)phenyl-sulfonamido)-N,N,N-trimethylpropan-1-aminium 2,2,2-trifluoroacetate]
18 | 100 to 1000 | C[N+](C)(C)C[C@@H](CC(=O)O)NC(=O)c1ccc(NS(=O)(=O)c2cccs2)cc1 [Example S2, (R)-3-(4-(thiophene-2-sulfonamido)benzamido)-4-(trimethylammonio)-butanoate]
19 | 1 to 10 | CCCCCCc1ccc(C#Cc2ccc(C(=O)N[C@H](CC(=O)O)C[N+](C)(C)C)o2)s1 [Example S118, (R)-3-carboxy-2-(5-((5-hexylthiophen-2-yl)ethynyl)furan-2-carboxamido)-N,N,N-trimethylpropan-1-aminium 2,2,2-trifluoroacetate]
20 | 10 to 100 | CCCCCCC#Cc1cccc(NS(=O)(=O)N[C@H](CC(=O)[O-])C[N+](C)(C)C)c1 [Example S110, (R)-3-(N-(3-(oct-1-ynyl)phenyl)sulfamoylamino)-4-(trimethylammonio) butanoate]
21 | ≤ 1 | CCCCCCCc1ccc(NS(=O)(=O)N[C@H](CC(=O)[O-])C[N+](C)(C)C)cc1 [Example S27, (R)-3-(N-(4-heptylphenyl)sulfamoylamino)-4-(trimethylammonio)-butanoate]
22 | 10 to 100 | C[N+](C)(C)C[C@@H](CC(=O)[O-])NC(=O)c1ccc(CCc2ccccc2)cc1 [Example S64, (R)-3-(4-phenethylbenzamido)-4-(trimethylammonio)butanoate]
23 | 1000 to 2500 | C[N+](C)(C)C[C@@H](CC(=O)O)NS(=O)(=O)c1ccc(-c2ccccn2)s1 [Example S21, (R)-3-(5-(pyridin-2-yl)thiophene-2-sulfonamido)-4-(trimethylammonio)-butanoate 2,2,2-trifluoroacetate]
24 | > 2500 | CN(C)C[C@@H](CC(=O)O)NC(=O)N(C)c1ccc(Oc2ccccc2)cc1 [Example S33, (R)-4-(dimethylammonio)-3-(3-methyl-3-(4-phenoxyphenyl)-ureido)butanoate]
25 | > 2500 | CC(=O)Nc1ccc(C(=O)N[C@H](CC(=O)[O-])C[N+](C)(C)C)cc1 [Example S53, (R)-3-(4-acetamidobenzamido)-4-(trimethylammonio)butanoate]
